Where a name gives a salt, the structure may show the parent alone. Read-outs that look alike come from different tables or passages of the source. One block for each compound: values may come before it.
Assays:
[1] = system: T1, TvL; laccase from Trametes versicolor; conditions: at pH and temperature optima; McIlvaine buffer
T1 construct: gene LCC2

[2] = target: T2, AnG; glucose oxidase from Aspergillus niger (Aspergillus niger, UniProt P13006); assay: ABTS-HrP-coupled spectrophotometric assay, […] nm; format: biochemical; conditions: 16 mM glucose, 1 mM ABTS, excess HrP (0.7 mg/mL); McIlvaine buffer
T2 construct: gene gox
T2 sequence (P13006 23-605): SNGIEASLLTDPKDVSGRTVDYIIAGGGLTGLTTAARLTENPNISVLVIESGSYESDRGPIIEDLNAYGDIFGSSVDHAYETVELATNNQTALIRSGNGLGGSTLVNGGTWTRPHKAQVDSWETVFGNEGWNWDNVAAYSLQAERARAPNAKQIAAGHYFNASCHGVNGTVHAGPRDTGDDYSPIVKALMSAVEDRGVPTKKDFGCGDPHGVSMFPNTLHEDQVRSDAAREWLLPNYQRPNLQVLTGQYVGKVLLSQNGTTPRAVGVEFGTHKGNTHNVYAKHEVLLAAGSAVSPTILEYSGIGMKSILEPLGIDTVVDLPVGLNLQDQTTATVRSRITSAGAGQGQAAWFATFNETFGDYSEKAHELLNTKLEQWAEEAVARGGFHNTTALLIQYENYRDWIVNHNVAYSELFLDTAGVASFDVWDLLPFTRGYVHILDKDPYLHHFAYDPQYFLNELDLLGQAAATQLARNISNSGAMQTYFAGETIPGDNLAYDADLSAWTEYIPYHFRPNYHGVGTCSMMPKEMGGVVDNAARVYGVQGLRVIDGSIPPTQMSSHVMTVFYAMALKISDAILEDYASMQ

[3] = system: T1, TvL; laccase from Trametes versicolor; conditions: at pH and temperature optima; McIlvaine buffer; enzyme alone
[4] = system: T3, AbT; tyrosinase from Agaricus bisporus; assay: HTyr-MBTH spectrophotometric assay, […] nm; format: biochemical; conditions: at pH and temperature optima; McIlvaine buffer; excess MBTH, 2% DMF
T3 construct: gene PPO3

[5] = system: T1, TvL; laccase from Trametes versicolor; assay: HTyr-MBTH spectrophotometric assay, […] nm; format: biochemical; conditions: at pH and temperature optima; McIlvaine buffer; excess MBTH, 2% DMF
[6] = system: T3, AbT; tyrosinase from Agaricus bisporus; assay: spectrophotometric, product formation at […] nm; format: biochemical; conditions: at pH and temperature optima; McIlvaine buffer; enzyme alone

Structure (SMILES): OC[C@H]1OC(O)[C@H](O)[C@@H](O)[C@@H]1O (stereo partly drawn) [D-glucose]
ABTS-HrP-coupled spectrophotometric assay, 415 nm [2]: For AnG, glucose as a substrate was converted to H2O2

Structure (SMILES): N[C@@H](Cc1ccc(O)cc1)C(=O)O [Y, L-tyrosine]
Km [6]: 504 µM

The remaining lines, values ahead:

Km [1]: 36 µM
Structure (SMILES): CCn1c(=NN=c2sc3cc(S(=O)(=O)O)ccc3n2CC)sc2cc(S(=O)(=O)O)ccc21 [ABTS, 2,2′-azino-bis(3-ethylbenzothiazoline-6-sulfonic acid) diammonium salt]

Km [3]: 57 µM
Structure (SMILES): COc1cc(/C=C/C(=O)O)ccc1O [FA, trans-ferulic acid]

Km [4]: 44 µM
Km [5]: 73 µM
Structure (SMILES): OCCc1ccc(O)c(O)c1 [HTyr, hydroxytyrosol]
